According to US9452980B2, “Substituted benzamides” (Hoffmann-La Roche Inc., priority 2009, dated 2016):
Where a name gives a salt, the structure may show the parent alone. Read-outs that look alike come from different tables or passages of the source.

How the values were obtained:
mouse TAAR1 = mouse TAAR1 (Mus musculus (Mouse), UniProt Q923Y8); assay: Radioligand binding assay on mouse TAAR1; conditions: read-out: Ki (μM) mouse
Protocol: (§1) For the construction of expression plasmids the coding sequences of human, rat and mouse TAAR1 were amplified from genomic DNA essentially as described by Lindemann et al.. The Expand High Fidelity PCR System (Roche Diagnostics) was used with 1.5 mM Mg^2+ and purified PCR products were cloned into pCR2.1-TOPO cloning vector (Invitrogen) following the instructions of the manufacturer. PCR products were subcloned into the pIRESneo2 vector (BD Clontech, Palo Alto, Calif.), and expression vectors were sequence verified before introduction in cell lines.
(§2) HEK293 cells (ATCC #CRL-1573) were cultured essentially as described by Lindemann et al. (2005). For the generation of stably transfected cell lines HEK293 cells were transfected with the pIRESneo2 expression plasmids containing the TAAR coding sequences (described above) with Lipofectamine 2000 (Invitrogen) according to the instructions of the manufacturer, and 24 hrs post transfection the culture medium was supplemented with 1 mg/ml G418 (Sigma, Buchs, Switzerland). After a culture period of about 10 d clones were isolated, expanded and tested for responsiveness to trace amines (all compounds purchased from Sigma) with the cAMP Biotrak Enzyme immunoassay (EIA) System (Amersham) following the non-acetylation EIA procedure provided by the manufacturer.
Radioligand Binding Assay on Mouse TAAR1
(§3) Membrane Preparation and Radioligand Binding.
(§4) HEK-293 cells stably expressing mouse TAAR1 were maintained at 37° C. and 5% CO2 in DMEM high glucose medium, containing fetal calf serum (10%, heat inactivated for 30 min at 56° C.), penicillin/streptomycin (1%), and 375 μg/ml geneticin (Gibco). Cells were released from culture flasks using trypsin/EDTA, harvested, washed twice with ice-cold PBS (without Ca^2+ and Mg^2+), pelleted at 1,000 rpm for 5 min at 4° C., frozen and stored at −80° C. Frozen pellets were suspended in 20 ml HEPES-NaOH (20 mM, pH 7.4) containing 10 mM EDTA and homogenized with a Polytron (PT 6000, Kinematica) at 14,000 rpm for 20 s. The homogenate was centrifuged at 48,000×g for 30 min at 4° C. Subsequently, the supernatant was removed and discarded, and the pellet resuspended in 20 ml HEPES-NaOH (20 mM, pH 7.4) containing 0.1 mM EDTA using the Polytron (20 s at 14,000 rpm). This procedure was repeated and the final pellet resuspended in HEPES-NaOH containing 0.1 mM EDTA and homogenized using the Polytron. Typically, aliquots of 2 ml membrane portions were stored at −80° C. With each new membrane batch the dissociation constant (Kd) was determined via a saturation curve. […] Nonspecific binding was defined as the amount of ^3[H]—(S)-4-[(ethyl-phenyl-amino)-methyl]-4,5-dihydro-oxazol-2-ylamine bound in the presence of 10 μM unlabeled ligand. All compounds were tested at a broad range of concentrations (10 pM to 10 μM) in duplicates. […] The 96 deep well plates were incubated for 1 hr at 4° C. Incubations were terminated by rapid filtration through Unifilter-96 plates (Packard Instrument Company) and glass filters GF/C (Perkin Elmer) presoaked for 1 hr in polyethylenimine (0.3%) and washed 3 times with 1 ml of cold binding buffer. After addition of 45 μl of Microscint 40 (PerkinElmer) the Unifilter-96 plate was sealed and after 1 hr the ratioactivity counted using a TopCount Microplate Scintillation Counter (Packard Instrument Company).

rat TAAR1 = rat TAAR1 (Rattus norvegicus (Rat), UniProt Q923Y9); assay: Radioligand binding assay on rat TAAR1; conditions: read-out: Ki (μM) rat
Protocol: as §1, §2
Radioligand Binding Assay on Rat TAAR1
as §3
as §4, with “rat” for “mouse”

[1] = mouse TAAR1, HEK-293 membranes, first value of cell mouse/rat
[2] = rat TAAR1, HEK-293 membranes, second value of cell mouse/rat

Chain of mouse TAAR1 (Q923Y8 whole entry): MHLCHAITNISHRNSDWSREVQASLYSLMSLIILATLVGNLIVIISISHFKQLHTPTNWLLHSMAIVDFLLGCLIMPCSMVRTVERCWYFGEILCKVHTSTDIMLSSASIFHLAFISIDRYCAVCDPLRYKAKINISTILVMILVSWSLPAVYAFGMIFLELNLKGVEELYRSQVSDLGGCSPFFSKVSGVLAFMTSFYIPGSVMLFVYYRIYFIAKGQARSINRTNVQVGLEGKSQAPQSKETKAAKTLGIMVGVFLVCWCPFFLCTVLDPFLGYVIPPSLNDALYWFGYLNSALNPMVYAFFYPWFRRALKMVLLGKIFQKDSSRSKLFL
Chain of rat TAAR1 (Q923Y9 whole entry): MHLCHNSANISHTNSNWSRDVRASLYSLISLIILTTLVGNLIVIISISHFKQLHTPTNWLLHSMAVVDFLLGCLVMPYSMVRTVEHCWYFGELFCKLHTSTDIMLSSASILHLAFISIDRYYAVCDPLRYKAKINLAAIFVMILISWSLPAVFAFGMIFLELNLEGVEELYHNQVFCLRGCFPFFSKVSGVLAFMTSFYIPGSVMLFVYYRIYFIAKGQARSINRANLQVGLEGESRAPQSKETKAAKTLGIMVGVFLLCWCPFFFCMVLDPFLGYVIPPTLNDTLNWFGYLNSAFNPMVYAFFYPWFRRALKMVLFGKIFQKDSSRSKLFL

Row | Structure (SMILES) | Ki (mouse TAAR1; [1]) [µM] | Ki (rat TAAR1; [2]) [µM] | Ki (rat TAAR1) [µM] | Ki (mouse TAAR1) [µM]
1 | O=C(Nc1ccc(C2CCNC2)cc1)OC1CCC(F)(F)CC1 (racemic) [Example 45, (RS)-(4-Pyrrolidin-3-yl-phenyl)-carbamic acid 4,4-difluoro-cyclohexyl ester] | 0.0131 | 0.0077 | – | –
2 | O=C(Nc1ccc(C2CCNC2)cc1)OCc1ccc(F)cc1 (racemic) [Example 47, (RS)-(4-Pyrrolidin-3-yl-phenyl)-carbamic acid 4-fluoro-benzyl ester hydrochloride] | 0.0019 | 0.0048 | – | –
3 | CCOc1ccc(C(=O)Nc2ccc(C3CCNC3)cc2)cc1 (racemic) [Example 52, (RS)-4-Ethoxy-N-(4-pyrrolidin-3-yl-phenyl)-benzamide hydrochloride] | 0.0017 | 0.0109 | – | –
4 | CCCc1ccc(C(=O)Nc2ccc(C3CCNC3)cc2)cc1 (racemic) [Example 53, (RS)-4-Propyl-N-(4-pyrrolidin-3-yl-phenyl)-benzamide hydrochloride] | 0.0016 | 0.0053 | – | –
5 | C#Cc1ccc(C(=O)Nc2ccc(C3CCNC3)cc2)cc1 (racemic) [Example 54, (RS)-4-Ethynyl-N-(4-pyrrolidin-3-yl-phenyl)-benzamide hydrochloride] | 0.0021 | – | 0.0152 | –
6 | N#Cc1ccc(C(=O)Nc2ccc(C3CCNC3)cc2)cc1 (racemic) [Example 55, (RS)-4-Cyano-N-(4-pyrrolidin-3-yl-phenyl)-benzamide hydrochloride] | – | 0.0745 | – | 0.0048
7 | O=C(Nc1ccc(C2CCNC2)cc1)c1ccc(Cl)c(Cl)c1 (racemic) [Example 56, (RS)-3,4-Dichloro-N-(4-pyrrolidin-3-yl-phenyl)-benzamide hydrochloride] | 0.0008 | 0.0018 | – | –
8 | O=C(Nc1ccc(C2CCCNC2)cc1)c1ccc(Cl)cc1 (racemic) [Example 58, (RS)-4-Chloro-N-(4-piperidin-3-yl-phenyl)-benzamide hydrochloride] | 0.0007 | 0.0022 | – | –
9 | COC(C(=O)Nc1ccc(C2CCNC2)cc1)c1ccc(Cl)cc1 (racemic) [Example 60, (RS)-2-(4-Chloro-phenyl)-2-methoxy-N—((RS)-4-pyrrolidin-3-yl-phenyl)-acetamide] | 2.83 | 0.0457 | – | –
10 | CC(C(=O)Nc1ccc(C2CCNC2)cc1)c1cccc(C(F)(F)F)c1 (racemic) [Example 61, (RS)—N—((RS)-4-Pyrrolidin-3-yl-phenyl)-2-(3-trifluoromethyl-phenyl)-propionamide] | 0.0172 | 0.0033 | – | –
11 | O=C(Nc1ccc([C@@H]2CNC[C@H]2O)cc1)c1ccc(Cl)cc1 (racemic) [Example 63, 4-Chloro-N-[4-((3RS,4SR)-4-hydroxy-pyrrolidin-3-yl)-phenyl]-benzamide hydrochloride] | 0.0837 | 0.174 | – | –
12 | CC(C(=O)Nc1ccc(C2CCNC2)cc1)c1cccc(C(=O)c2ccccc2)c1 (racemic) [Example 64, (RS)-2-(3-Benzoyl-phenyl)-N—((RS)-4-pyrrolidin-3-yl-phenyl)-propionamide] | 0.124 | 0.0215 | – | –
13 | COc1cccc(CC(=O)Nc2ccc(C3CCNC3)cc2)c1 (racemic) [Example 65, (RS)-2-(3-Methoxy-phenyl)-N-(4-pyrrolidin-3-yl-phenyl)-acetamide hydrochloride] | 0.125 | 0.352 | – | –
14 | N#Cc1cccc(CC(=O)Nc2ccc(C3CCNC3)cc2)c1 (racemic) [Example 66, (RS)-2-(3-Cyano-phenyl)-N-(4-pyrrolidin-3-yl-phenyl)-acetamide] | 0.137 | 0.645 | – | –
15 | CC(C(=O)Nc1ccc(C2CCNC2)cc1)c1cccc(C#N)c1 (racemic) [Example 68, (RS)-2-(3-Cyano-phenyl)-N—((RS)-4-pyrrolidin-3-yl-phenyl)-propionamide] | 0.147 | 0.102 | – | –
16 | O=C(Nc1ccc([C@@H]2CNC[C@@H]2F)cc1)c1ccc(Cl)cc1 (racemic) [Example 69, 4-Chloro-N-[4-((3RS,4RS)-4-fluoro-pyrrolidin-3-yl)-phenyl]-benzamide hydrochloride] | 0.0048 | 0.023 | – | –
17 | O=C(Nc1cccc(C2CNCCO2)c1)c1ccc(Cl)cc1 (racemic) [Example 72, (RS)-4-Chloro-N-(3-morpholin-2-yl-phenyl)-benzamide hydrochloride] | 0.507 | 0.107 | – | –
18 | O=C(Nc1ccc(C2CCNC2)cc1)c1ccc(-n2cccn2)nc1 (racemic) [Example 73, (RS)-6-Pyrazol-1-yl-N-(4-pyrrolidin-3-yl-phenyl)-nicotinamide hydrochloride] | 0.0056 | 0.0257 | – | –
19 | O=C(Nc1ccc(C2CCCNC2)cc1)c1ccc(Cl)nc1 (racemic) [Example 74, (RS)-6-Chloro-N-(4-piperidin-3-yl-phenyl)-nicotinamide hydrochloride] | 0.0049 | 0.0672 | – | –
20 | O=C(Nc1ccc(C2CCNC2)cc1)c1ncc(F)cc1F (racemic) [Example 75, (RS)-3,5-Difluoro-pyridine-2-carboxylic acid (4-pyrrolidin-3-yl-phenyl)-amide hydrochloride] | 0.0255 | 1.48 | – | –
21 | O=C(Nc1ccc(C2CCNC2)cc1)c1nc2ccccc2[nH]1 (racemic) [Example 76, (RS)-1H-Benzoimidazole-2-carboxylic acid (4-pyrrolidin-3-yl-phenyl)-amide hydrochloride] | 0.136 | 0.296 | – | –
22 | O=C(Nc1ccc(C2CCNC2)cc1)c1ccc(Cl)cc1F (racemic) [Example 77, (RS)-4-Chloro-2-fluoro-N-(4-pyrrolidin-3-yl-phenyl)-benzamide hydrochloride] | 0.0017 | 0.0238 | – | –
23 | O=C(Nc1ccc(C2CCCNC2)cc1)c1ccc(Cl)cn1 (racemic) [Example 78, (RS)-5-Chloro-pyridine-2-carboxylic acid (4-piperidin-3-yl-phenyl)-amide hydrochloride] | 0.0067 | 0.0466 | – | –
24 | O=C(Nc1ccc(C2CCCNC2)cc1)Nc1ccc(Cl)nc1 (racemic) [Example 79, (RS)-1-(6-Chloro-pyridin-3-yl)-3-(4-piperidin-3-yl-phenyl)-urea hydrochloride] | 0.0075 | 0.0924 | – | –
25 | O=C(Nc1ccc(C2CCNC2)cc1)Nc1cccc2cccnc12 (racemic) [Example 81, (RS)-1-(4-Pyrrolidin-3-yl-phenyl)-3-quinolin-8-yl-urea] | 0.0227 | 0.0124 | – | –
